{"source": "patent US20230107216A1", "about": "“PANTETHEINE DERIVATIVES AND USES THEREOF” (Comet Therapeutics, Inc., priority 2018, published 2023)", "key": {"[1]": {"test_system": "Peripheral blood mononuclear cells co-cultured with venular endothelial cells (Sag system)", "assay": "BioMAP Sag system (T-cell ligands)", "format": "cell-based, human", "details": "10 uM; procedure of Example 828", "experimental": "The BioMAP platform (BioMAP® Diversity PLUS® Panel from Eurofins) is an in vitro phenotypic profiling technology that screened the compounds of the present disclosure (hereafter indicated as test agents) in human primary cell-based systems modelling complex tissue and disease states. The BioMAP assays were performed using the Eurofin's BioMAP Technology Platform as (see references 1 to 13 in the example 824 section) to model different diseases on primary cell-based model systems. These systems consisted of either single primary cell types or co-culture cells. Adherent cell types were cultured or co-cultured in 96 or 384-well plates until confluence followed by the addition of compounds prepared in DMSO at a final concentration of ≤0.1%. In each cell-based system, primary cells from heathy donors (2-6 donors) were pooled and treated with compounds at 1 and 10 μM dose 1h prior to stimulation and remain in culture as indicated in Example 825, Example 826, Example 827, Example 828, Example 829, Example 830, Example 831, Example 832, Example 833, Example 834, Example 835, Example 836 and Example 837. For on the BioMAP® Diversity PLUS® Panel, please see the following references, which are incorporate herein.\nFollowing the general procedure as described in Example 824, Peripheral blood mononuclear cells were co-cultured with venular endothelial cells and treated with soluble antigen (T-cell ligands) (Sag system) in the presence or absence of compounds to model autoimmune and chronic inflammation. Biomarkers read out were; MCP-1, CD38, CD40, E-selectin, CD69, IL-8, MIG, PBMC cytotoxicity, Proliferation and SRB."}, "[2]": {"test_system": "Coronary artery smooth muscle cells (CASM3C system)", "assay": "BioMAP CASM3C system (IL-1β, TNFα, IFNγ)", "format": "cell-based, human"}, "[3]": {"test_system": "Bronchial epithelial cells co-cultured with dermal fibroblast (BF4T system)", "assay": "BioMAP BF4T system (TNFα and IL-4)", "format": "cell-based, human", "details": "Homo sapiens, 24 h; 10 uM; procedure of Example 830; read-out: % increase in VCAM-1"}, "[4]": {"test_system": "Propionic Acidemia (PA) primary fibroblasts GM00371", "assay": "Mitochondrial respiration, XFe96 Extracellular Flux Analyzer (OCR/ECAR), PA fibroblasts GM00371", "format": "cell-based", "details": "Homo sapiens, Fibroblast"}, "[5]": {"test_system": "Peripheral blood mononuclear cells co-cultured with B-cells (BT system)", "assay": "cells", "details": "Homo sapiens, 72 h, read-out: % decrease in sIL-17"}, "[6]": {"test_system": "Venular Endothelial cells (HUVEC) (4H system)", "assay": "BioMAP 4H system (IL-4 and histamine)", "format": "cell-based, human", "details": "10 uM; procedure of Example 826"}, "[7]": {"test_system": "Bronchial epithelial cells (BE3C system)", "assay": "BioMAP BE3C system (IL-1β, TNFα, IFNγ)", "format": "cell-based, human", "details": "Homo sapiens, Epithelial cell, 24 h; 10 uM; procedure of Example 831; read-out: % decrease in MMP-1"}, "HepG2 cells": {"test_system": "HepG2 cells", "assay": "Glucose uptake (Glucose Uptake-Glo)", "format": "cell-based", "details": "Homo sapiens, 50 uM, read-out: % increase in Glucose Uptake"}, "[8]": {"test_system": "Dermal fibroblasts (HDF3CGF system)", "assay": "BioMAP HDF3CGF system (IL-1β, TNFα, IFNγ, EGF, bFGF, PDGF-BB)", "format": "cell-based, human", "details": "Homo sapiens, Fibroblast, 72 h; 1 uM; read-out: % increase in 72 Hour Proliferation"}, "[9]": {"test_system": "Peripheral blood mononuclear cells co-cultured with venular endothelial cells (HUVEC) (LPS system)", "assay": "BioMAP LPS system", "format": "cell-based, human", "details": "procedure of Example 827"}, "[10]": {"test_system": "Leigh Syndrome (LS) primary fibroblasts GM03672", "assay": "NADP+/NADPH (NADP/NADPH-Glo), Leigh fibroblasts GM03672", "format": "cell-based", "details": "Homo sapiens, Fibroblast, Leigh GM03672 P8, assay condition B (1 mM glucose, 2 mM L-glutamine, 1 mM pyruvate, 10% FBS), 24h, read-out: Increase in Total NADP+ + NADPH", "experimental": "Primary adherent fibroblasts were cultured in minimum essential medium (MEM) (Gibco, 25030081) supplemented with 2 mM L-Glutamine (Gibco, 25030081), 15% fetal bovine serum (FBS) (Gibco, 26400044) and 1% penicillin/streptomycin (Gibco, 5140122) at 37° C. and 5% CO2. Cells were collected for either passaging or experiment at ˜70-80% confluence. Cells were obtained by trypsinization and seeded in cell culture microplates either white plate (Thermo Fisher Scientific, 152028) for luminescent measurement or black plate (Thermo Fisher Scientific, 165305) for fluorescent based read out for different assays listed below. Cells were obtained by trypsinization and […] were seeded and allowed to adhere for 16-18 hours to have confluency around 70-80% in the cell well with culture media. After 24 hours prior to measurements (37° C., 5% CO2) media was changed to Dulbecco's Modified Eagle Medium (DMEM, Agilent Seahorse cat #103575-100) with the appropriate supplements as stated below.\nPrimary fibroblasts assayed were Propionic Acidemia (PA) (GM03590 Coriell Institute for Medical Research, Tsi 6337 Trans-Hit Bio), Methylmalonic Acidemia (MMA) (Tsi 5224 Trans-Hit Bio), Subnormal activation of pyruvate dehydrogenase complex (PDH) (GM01503 Coriell Institute for Medical Research), Very long-chain acyl-CoA dehydrogenase (VLCAD) (GM17475), Leigh Syndrome (LS) (GM03672, GM13411 Coriell Institute for Medical Research), Pyruvate Carboxylase Deficiency (PC) (GM00444 Coriell Institute for Medical Research). 10 μM of Compounds were added for 2 hours in PA, MMA lines and for 24h for the other fibroblast lines.\nAssay was performed according to manufacturer instructions (NADP+/NADPH-Glo Assay Promega, G9082). Assay required a plate for total measurement of NADP+/NADPH and a plate for individual measurement of NADP+ or NADPH. For every assay a 12-point standard curve is prepared ranging from 400 nM to 0.625 nM. Media is removed and replaced with 50 μl of PBS for both assays.\nFor individual NADP+/NADPH measurements, 50 μl of 1% DTAB (Sigma, D5047) (cell lysis reagent) in 0.2N NaOH was added to the plates and 100 μl of lysate was split into two plates with 50 μl each from which ratio of NADP/NADPH can be calculated. 25 μl of 0.4N HCl were added to the NADP+ plates and both NADP+ and NADPH plates were heated at 60° C. for 15 minutes. The acid and heat treatment destroyed NADPH allowing individual NADP+ measurements while heating in basic conditions destroys NADP+ allowing individual NADPH measurement. After 15 minutes plates were allowed to come to room temperature and Trizma base (Sigma, T1699) was added to the NADP+ plates to neutralize the acid and HCl Trizma hydrochloride (Sigma, T2694) was added to the NADPH plates. The NADNADPH glo reagent was prepared by adding 125 μl of NAD cycling substrate, 125 μl of reductase, 125 μl of reductase substrate, 125 μl NAD cycling enzyme to a total of the 25 ml of NAD GLO reagent. 1:1 ratio of total volume of reagent was added to the individual NADP+, NADPH measurements (total 100 μl) and 50 μl were added for the total NAD/NADPH measurements. Luminescence was measured for 30-60 minutes within the linear range.\nA total dead cell count was performed as described in Example 817 and only alive cells were used for analysis."}, "[11]": {"test_system": "primary fibroblasts (healthy controls and PA, MMA, BCKDK, PDH, VLCAD, LS, PC, GA, VLCFA, KSS, FXN, HD)", "assay": "Measurement of ROS (H2DCFDA) in primary fibroblasts", "format": "cell-based, human", "details": "Homo sapiens, procedure Example 812, Assay Condition C", "procedure,_shortened": "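Patient and healthy-control primary fibroblasts switched to supplemented DMEM 24 h before assay, then treated with compound (10 μM) plus H2DCFDA (22 μM) for 2 h (PA, MMA lines) or 24 h (other lines). Kinetic fluorescence at 492/527 nm over 60 min; only live cells analysed.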"}, "[12]": {"test_system": "primary fibroblasts GM00649, GM06225, GM00612, GM00444, GM03672", "assay": "MMP, ROS and ATP multiplex (ArrayScan)", "format": "cell-based", "details": "Homo sapiens, Fibroblast; Leigh GM03672; procedure Example 838; 50 μM (table line r25); read-out: Decreased ROS by at least 10%", "experimental": "Cell culture and treatments. Primary adherent fibroblasts were cultured in minimum essential medium (MEM) (Gibco, 25030081) supplemented with 2 mM L-Glutamine (Gibco, 25030081), 15% fetal bovine serum (FBS) (Gibco, 26400044) and 1% penicillin/streptomycin (Gibco, 5140122) at 37° C. and 5% CO2. Cells were collected for either passaging or experiment at ˜70-80% confluence. Cells were obtained by trypsinization and seeded at 10000 cells/well in cell culture microplates (Seahorse Bioscience, 101085-004) and allowed to adhere for 16 hours in culture media. After media was refreshed with DMEM (Agilent Seahorse 103575-100) supplemented with 1 mM glucose and 10% FBS (Gibco, 26400044). At the end of the incubation period, the cells were loaded with the relevant dye/antibody for each cell health marker. The assay provided simultaneous measurement of cell health parameters including cell count, ROS formation (DHE), mitochondrial membrane potential (MitoTracker®) and cellular ATP content (CellTiter-Glo®, Promega). The plates were then scanned using an automated fluorescent cellular imager, ArrayScan® (Thermo Scientific Cellomics). Assay conditions were optimized by one skilled in the art.\nPrimary cells used in this example were obtained from Coriell Institute for Medical Research and consisted of GM00649, MSUD (Maple Syrup Urine Disease) Tyle IA; GM06225, Kearns-Sayre Syndrome; GM00612, MSUD (Maple Syrup Urine Disease) Tyle II GM00444, Pyruvate Carboxylase Deficiency and GM03672, Leigh Syndrome."}}, "note": "Where two headings read alike, the source gives them in different places.", "data": [{"smiles": "CCC(=O)OCC(C)(C)[C@@H](O)C(=O)NCCC(=O)NCCSC(=O)CCC(=O)O", "note": "[Compound 157, 4-[(2-[3-[(2R)-2-hydroxy-3,3-dimethyl-4-(propanoyloxy)butanamido]propanamido]ethyl)sulfanyl]-4-oxobutanoic acid]", "values": [{"measurement": "% increase in Proliferation", "setting": "[1]", "result": "≥10", "unit": "%"}, {"measurement": "% decrease in Proliferation", "setting": "[2]; 1 uM, procedure of Example 832", "result": "≥10", "unit": "%"}, {"measurement": "% decrease in HLA-DR", "setting": "[2]; 10 uM", "result": "≥10", "unit": "%"}, {"measurement": "activation at 10 µM", "setting": "[3]", "result": "≥ 10", "unit": "%"}, {"measurement": "activation at 50 µM", "setting": "[4]; assay condition C (10 mM glucose, 10% FBS), 50 μM, read-out: Increase in Maximal Respiratory Capacity AUC", "result": "≥ 10", "unit": "%"}, {"measurement": "inhibition at 1 µM", "setting": "[5]", "result": "≥ 10", "unit": "%"}, {"measurement": "% decrease in MCP-1", "setting": "[6]", "result": "≥10", "unit": "%"}, {"measurement": "inhibition at 10 µM", "setting": "[7]", "result": "≥ 10", "unit": "%"}, {"measurement": "activation at 50 µM", "setting": "HepG2 cells", "result": "≥ 20", "unit": "%"}, {"measurement": "activation at 1 µM", "setting": "[8]", "result": "≥ 10", "unit": "%"}, {"measurement": "% increase in Tissue Factor", "setting": "[9]; 1 uM", "result": "≥10", "unit": "%"}, {"measurement": "inhibition at 10 µM", "setting": "[9]; Homo sapiens, HUVEC, 24 h, 10 uM, read-out: % decrease in IL-1α", "result": "≥ 10", "unit": "%"}, {"measurement": "inhibition at 10 µM", "setting": "[9]; Homo sapiens, HUVEC, 24 h, 10 uM, read-out: % decrease in TissueFactor", "result": "≥ 10", "unit": "%"}, {"measurement": "activation at 10 µM", "setting": "[9]; Homo sapiens, HUVEC, 24 h, 10 uM, read-out: % increase in sTNFα", "result": "≥ 10", "unit": "%"}]}, {"smiles": "CC(C)(CO)[C@@H](OC(=O)CN)C(=O)NCCC(=O)NCCSC(=O)CCC(=O)O", "note": "[Compound 1292, 4-[(2-[3-[(2R)-2-[(2-aminoacetyl)oxy]-4-hydroxy-3,3-dimethylbutanamido]propanamido]ethyl)sulfanyl]-4-oxobutanoic acid]", "values": [{"measurement": "activation at 10 µM", "setting": "[10]", "result": "≥ 10", "unit": "%"}, {"measurement": "inhibition at 10 µM", "setting": "[11]; Fibroblast, KSS GM06225, read-out: Decreased ROS by at least 30%", "result": "≥ 30", "unit": "%"}, {"measurement": "inhibition at 10 µM", "setting": "[11]; Fibroblast, Leigh GM13411, read-out: Decreased ROS by at least 10%", "result": "≥ 10", "unit": "%"}, {"measurement": "inhibition at 10 µM", "setting": "[11]; FXN GM04078, read-out: Decreased ROS by at least 10%", "result": "≥ 10", "unit": "%"}, {"measurement": "inhibition at 10 µM", "setting": "[11]; FXN GM04078, read-out: Decreased ROS by at least 30%", "result": "≥ 30", "unit": "%"}, {"measurement": "inhibition at 50 µM", "setting": "[12]", "result": "≥ 10", "unit": "%"}, {"measurement": "activation at 10 µM", "setting": "[4]; assay condition D (1 mM glucose, 10% FBS), 10 μM, read-out: Increase in Spare Capacity AUC", "result": "≥ 30", "unit": "%"}]}]}
